Test results reported in patent publication US7226625B2, “Identification of compositions, compositions, and methods of treatment of obesity and overweight conditions” (Phytomyco Research Corporation, priority 2003, dated 2007).

Tests used:
[1] = in vivo; cited from earlier work
3T3-L1 preadipocytes = test: adipocyte differentiation blocking assay (GPDH level in cell lysates); format: cell-based, mouse; conditions: after 10-fold dilution (FIG. 6)
From the text: The adipocyte differentiation blocking assay is an enzyme assay that examines the ability of compounds to block differentiation of preadipocytes to adipocytes by quantifying the level of GPDH in cell lysates (inhibition of adipogenesis). Based on preliminary results using this assay, we selected two plant extracts (designated as PM765, and as PM902, respectively) and collected eluant fractions isolated by HPLC, the extracts being divided into 40 or 120 fractions in collection wells (collected at 30 second or 1 minute HPLC eluant flow time intervals) (FIG. 3). […] MDI treatment is defined as Differentiation media causes the 3T3-L1 preadipocytes (fibroblast cells) to differentiate into adipocytes (fat cells). Differentiation media is composed of: • Per 100 ml of differentiation media • 90 mL DMEM media • 10 mL FCS • 1% pen/strep • 1 ml methylisobutylxanthine (stock 11.5 mg/mL) • 100 ul dexamethasone (stock 0.4 mg/mL) • 1 ml insulin (stock 1 mg/mL)
Inhibition of adipocyte differentiation is assayed by measuring the levels of the enzyme glycerol-3-phosphate dehydrogenase (GPDH). […]
In this assay pre-adipocyte cells require 10 to 15 days to differentiate into adipocytes. […] After cells have undergone the 10–15 days required to differentiate, cells are assessed for GPDH activity.
Results are expressed as a percentage of the untreated control average. […]

adipocytes = test: assays of this invention (lipolysis, adipocyte differentiation, de-differentiation); format: cell-based, mouse
Experimental: Assay 1. Lipolysis Assay.
In this assay, pre-adipocyte cells are seeded in 96-well plates and are induced to convert to adipocytes over the course of a 10–15 day treament with lipolytic reagents. After cells have converted to adipocytes, the cells are starved, and then subsequently treated with or exposed to test compounds or mixtures of compounds or extracts of plants or fractionated extracts of plants. The adipocytes are treated with test compounds in the presence of a surrounding cell medium. Over the course of 1 to 3 hours after exposure to the test compounds or mixture of compounds, the amount of glycerol present in the cell medium is measured. Glycerol and fatty acids are hydrolysis products of triglycerides, and glycerol is released from cells after enzymatic hydrolysis or breakdown of lipids.
Assay 2. […]
In this assay pre-adipocyte cells require 10 to 15 days to differentiate into adipocytes. […] After cells have undergone the 10–15 days required to differentiate, cells are assessed for GPDH activity. […]
This assay comprises a colorimetric assay to screen for compounds and mixtures of compounds that induce the differentiation of adipocytes to preadipocytes. The presence of such compounds is determined by measuring the relative levels of the enzyme GPDH. […] GPDH levels present in the cells are measured to determine if the cells still express the adipocyte phenotype. […]

3T3-L1 cells = conditions: GPDH activity, oil red O staining; cited from earlier work
leptin = conditions: cited from earlier work

| Compound | decrease of the amount of fat absorbed from the diet [1] | blocking of adipocyte differentiation, as a percent of positive control (3T3-L1 preadipocytes) | activity in the assays of this invention (adipocytes) | differentiation of preadipocytes (3T3-L1 cells) | effect on leptin levels (leptin) |
| --- | --- | --- | --- | --- | --- |
| CCCCCCCCCCC[C@@H](C[C@@H]1OC(=O)[C@H]1CCCCCC)OC(=O)[C@H](CC(C)C)NC=O [Orlistat] | about 30% |  |  |  |  |
| C=C[C@](C)(O)CC[C@@H]1[C@@]2(C)CCCC(C)(C)[C@@H]2CC[C@@]1(C)O [sclareol, labdane-14-ene-8,13-diol] |  | blocking of adipocyte differentiation | active |  |  |
| CC1(C)CCC[C@]2(C)[C@H]3CC(=O)O[C@]3(C)CC[C@@H]12 [sclareolide, 3aR-[3a-alpha, 5a-beta, 9a-alpha, 9b-alpha]-decahydro-3a,6,6,9a-tetramethylnaphtho[2,1-b]furane-2(1H)-one] |  | blocking of adipocyte differentiation | active |  |  |
| myostatin: adipocyte blocking agent, inhibitor of skeletal muscle growth, member of the TGF-β superfamily |  |  |  | inhibits differentiation of preadipocytes | no effect |
